Measured values published in patent US20140213538A1, “LYSOPHOSPHATIDIC ACID RECEPTOR ANTAGONISTS” (InterMune, Inc., priority 2013, published 2014).

What was measured:
Assay type in all cases: cell-based
[1] = molecular target: T1, LPA/S1P GPCR of interest (Homo sapiens, UniProt Q92633); assay: Beta-Arrestin based assay (PathHunter)
T1 construct: host or cells: CHO
How it was run: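 EA Parental CHO cells (DiscoverX) were transfected with FuGENE (Roche) using CMV promoter-driven DNA constructs encoding the LPA/S1P GPCR of interest fused to a ProLink tag. Beta-arrestin recruitment in agonist mode was assessed 24-48 hrs later with PathHunter kits. Tests ran in quadruplicate in white 384 well plates, and end point luminescence was fit to a 4 parameter logistic function.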

[2] = molecular target: T2, LPA1 (Homo sapiens, UniProt Q92633); assay: Ca Flux LPA1 assay; set-up: the full-length cDNA for human LPA1 is obtained by PCR of the reverse transcription reaction; expressed in transfected cells
T2 sequence (Q92633 whole entry): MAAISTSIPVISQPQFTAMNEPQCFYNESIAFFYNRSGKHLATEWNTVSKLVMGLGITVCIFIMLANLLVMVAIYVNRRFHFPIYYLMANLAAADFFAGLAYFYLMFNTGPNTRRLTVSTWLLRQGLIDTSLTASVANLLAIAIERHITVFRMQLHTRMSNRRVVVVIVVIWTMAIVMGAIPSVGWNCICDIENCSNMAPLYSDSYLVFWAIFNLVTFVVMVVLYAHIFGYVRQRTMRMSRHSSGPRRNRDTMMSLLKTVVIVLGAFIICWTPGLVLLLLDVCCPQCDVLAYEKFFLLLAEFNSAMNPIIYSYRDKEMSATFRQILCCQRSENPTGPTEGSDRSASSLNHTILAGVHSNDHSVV

[3] = molecular target: T2, LPA1; assay: LPA1 Migration Assay (Oris); set-up: host or cells: primary fibroblasts (lung, dermal), HFL-1, 3T3 and CHO cells expressing LPA1R; conditions: read-out: Cell Migration EC50
How it was run: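 Oris exclusion-zone migration of LPA1R-expressing cells (primary lung/dermal fibroblasts, HFL-1, 3T3, CHO), Cell Tracker Green-loaded and serum-starved 12-24 h, toward LPA or serum. Fixed cells in the detection zone were counted by high-content imaging, and cell number vs. concentration was fitted to a 4-parameter logistic.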

T1 sequence (Q92633 whole entry): as above

Row | EC50 [1] [nM] | IC50 [2] [nM] | EC50 [3] [nM] | SMILES
1 | < 50 | 50 to 500 | 50 to 500 | Cc1noc(-c2ccc(-c3ccc(C(F)(F)C(=O)O)cc3)cc2)c1NC(=O)O[C@H](C)c1ccccc1 [IT123]
2 | > 500 | > 500 | 50 to 500 | Cc1noc(-c2ccc(-c3ccc(S(C)(=O)=O)cc3)cc2)c1NC(=O)O[C@H](C)c1ccccc1 [IT124]
3 | > 500 | < 50 | 50 to 500 | C[C@@H](OC(=O)Nc1ocnc1C#Cc1cc2sc(C3(C(=O)O)CC3)cc2s1)c1ccccc1 [IT125]
4 | < 50 | < 50 | 50 to 500 | C[C@@H](OC(=O)Nc1c(-c2cc3sc(C#CC4(C(=O)O)CC4)cc3s2)cnn1C)c1ccccc1 [IT126]
5 | < 50 | 50 to 500 | 50 to 500 | Cc1noc(-c2ccc(-c3ccc(C4(C(=O)O)CC(F)(F)C4)cc3)cc2)c1NC(=O)O[C@H](C)c1ccccc1 [IT136]
6 | < 50 | 50 to 500 | < 50 | Cc1noc(-c2ccc(-c3ccc(Oc4ccccc4C(=O)O)cc3)cc2)c1NC(=O)O[C@H](C)c1ccccc1 [IT155]
7 | < 50 | 50 to 500 | < 50 | Cc1noc(-c2ccc(-c3ccc(C4(C(=O)O)CC4(F)F)cc3)cc2)c1NC(=O)O[C@H](C)c1ccccc1 (stereo partly drawn) [IT172]
8 | < 50 | < 50 | 50 to 500 | Cc1noc(-c2ccc(-c3ccc(OC4(C(=O)O)CCC4)cc3)cc2)c1NC(=O)O[C@H](C)c1ccccc1 [IT196]
9 | < 50 | < 50 | < 50 | Cc1noc(-c2ccc(-c3ccc(OC4(C(=O)O)CC4)cc3)cc2)c1NC(=O)O[C@H](C)c1ccccc1 [IT197]
10 | < 50 | < 50 | 50 to 500 | C[C@@H](OC(=O)Nc1c(-c2ccc(-c3ccc(Oc4ccccc4C(=O)O)cc3)cc2)cnn1C)c1ccccc1 [IT198]
11 | < 50 | < 50 | < 50 | Cc1noc(-c2ccc(-c3ccc(Oc4ncccc4C(=O)O)cc3)cc2)c1NC(=O)O[C@H](C)c1ccccc1 [IT199]
12 | < 50 | < 50 | < 50 | Cc1noc(-c2ccc(NC(=O)c3coc(C4(C(=O)O)CC4)c3)cc2)c1NC(=O)O[C@H](C)c1ccccc1 [IT224]
13 | < 50 | < 50 | < 50 | Cc1noc(-c2ccc(-c3ccc(OC(C)(C)C(=O)O)cc3)cc2)c1NC(=O)O[C@H](C)c1ccccc1 [IT226]
14 | < 50 | < 50 | < 50 | Cc1noc(-c2ccc(-c3ccc(Oc4ccncc4C(=O)O)cc3)cc2)c1NC(=O)O[C@H](C)c1ccccc1 [IT227]
15 | < 50 | 50 to 500 | 50 to 500 | Cc1noc(-c2ccc(-c3ccc(OC(F)(F)C(=O)O)cc3)cc2)c1NC(=O)O[C@H](C)c1ccccc1 [IT228]
16 | < 50 | 50 to 500 | 50 to 500 | Cc1noc(-c2ccc(-c3ccc(Oc4cccnc4C(=O)O)cc3)cc2)c1NC(=O)O[C@H](C)c1ccccc1 [IT229]
17 | < 50 | < 50 | < 50 | Cc1noc(-c2ccc(-c3cc(F)c(C4(C(=O)O)CC4)c(F)c3)cc2)c1NC(=O)O[C@H](C)c1ccccc1 [IT234]
18 | < 50 | 50 to 500 | < 50 | Cc1noc(-c2ccc(-c3ccc(C4(C(=O)O)CCC4)cc3)cc2)c1NC(=O)O[C@H](C)c1ccccc1 [IT235]
19 | < 50 | < 50 | 50 to 500 | C[C@@H](OC(=O)Nc1c(-c2ccc(-c3ccc(C4(C(=O)O)CC4)s3)cc2)nnn1C)c1ccccc1 [IT236]
20 | < 50 | 50 to 500 | 50 to 500 | C[C@@H](OC(=O)Nc1c(-c2cc3sc(-c4ccc(C5(C(=O)O)CC5)cc4F)cc3s2)cnn1C)c1ccccc1 [IT245]
21 | < 50 | 50 to 500 | 50 to 500 | Cc1onc(-c2cc(F)c(-c3cc4sc(C5(C(=O)O)CC5)cc4s3)cc2F)c1NC(=O)O[C@H](C)c1ccccc1 [IT255]
22 | < 50 | < 50 | < 50 | Cc1noc(-c2ccc(-c3cc(F)c(Oc4ncccc4C(=O)O)c(F)c3)cc2)c1NC(=O)O[C@H](C)c1ccccc1 [IT258]
23 | < 50 | > 500 | 50 to 500 | C[C@@H](OC(=O)Nc1c(-c2cc3sc(-c4cc(F)c(C5(C(=O)O)CC5)c(F)c4)cc3s2)cnn1C)c1ccccc1 [IT261]
24 | < 50 | 50 to 500 | 50 to 500 | C[C@@H](OC(=O)Nc1c(-c2cc3sc(-c4cc(F)c(C5(C(=O)O)CC5)c(F)c4)cc3s2)nnn1C)c1ccccc1 [IT262]

Row | EC50 [1] [nM] | IC50 [2] [nM] | EC50 [3] [nM] | SMILES
25 | < 50 | 50 to 500 | < 50 | C[C@@H](OC(=O)Nc1c(-c2cc(Cl)c(-c3cc4sc(C5(C(=O)O)CC5)cc4s3)cc2F)cnn1C)c1ccccc1 [IT282]
26 | < 50 | < 50 | < 50 | Cc1noc(-c2ccc(-c3cc(F)c(Oc4ccncc4C(=O)O)c(F)c3)cc2)c1NC(=O)O[C@H](C)c1ccccc1 [IT300]
27 | < 50 | < 50 | 50 to 500 | C[C@@H](OC(=O)Nc1c(C#Cc2ccc(Oc3ccccc3C(=O)O)cc2)cnn1C)c1ccccc1 [IT301]
28 | 50 to 500 | < 50 | 50 to 500 | C[C@@H](OC(=O)Nc1c(C#Cc2cc(F)c(Oc3ncccc3C(=O)O)c(F)c2)cnn1C)c1ccccc1 [IT303]
29 | < 50 | < 50 | 50 to 500 | Cc1noc(-c2ccc(-c3cc(F)c(OC4(C(=O)O)CC4)c(F)c3)cc2)c1NC(=O)O[C@H](C)c1ccccc1 [IT304]
30 | < 50 | < 50 | < 50 | Cc1noc(-c2ccc(-c3cc(F)c(Oc4nccnc4C(=O)O)c(F)c3)cc2)c1NC(=O)O[C@H](C)c1ccccc1 [IT305]
31 | < 50 | < 50 | < 50 | C[C@@H](OC(=O)Nc1c(-c2ccc(-c3cc(F)c(Oc4ncccc4C(=O)O)c(F)c3)cc2)nnn1C)c1ccccc1 [IT306]
32 | < 50 | < 50 | 50 to 500 | Cc1nnn(-c2ccc(-c3cc(F)c(Oc4ncccc4C(=O)O)c(F)c3)cc2)c1NC(=O)O[C@H](C)c1ccccc1 [IT307]
33 | < 50 | 50 to 500 | < 50 | C[C@@H](OC(=O)Nc1c(-c2ccc(-c3cc(F)c(Oc4ncccc4C(=O)O)c(F)c3)cc2)cnn1C)c1ccccc1 [IT308]
34 | < 50 | < 50 | < 50 | C[C@@H](OC(=O)Nc1c(-c2ccc(-c3ccc(Oc4ccccc4C(=O)O)cc3)cc2)nnn1C)c1ccccc1 [IT309]
35 | < 50 | < 50 | < 50 | Cc1noc(-c2cc(F)c(-c3ccc(Oc4ccccc4C(=O)O)cc3)cc2F)c1NC(=O)O[C@H](C)c1ccccc1 [IT315]
36 | < 50 | 50 to 500 | < 50 | Cc1noc(-c2ccc(-c3cc(F)c(Oc4ccccc4C(=O)O)c(F)c3)cc2)c1NC(=O)O[C@H](C)c1ccccc1 [IT316]
37 | < 50 | 50 to 500 | 50 to 500 | Cc1cc(C2(C(=O)O)CC2)c(F)cc1-c1cc2sc(-c3nnn(C)c3NC(=O)O[C@H](C)c3ccccc3)cc2s1 [IT341]
38 | < 50 | < 50 | 50 to 500 | Cc1noc(-c2ccc(-c3ccc(Oc4ccccc4C(=O)O)nc3)cc2)c1NC(=O)O[C@H](C)c1ccccc1 [IT345]
39 | < 50 | 50 to 500 | 50 to 500 | Cc1noc(-c2ccc(-c3ccc(Oc4c(F)cccc4C(=O)O)c(F)c3)cc2)c1NC(=O)O[C@H](C)c1ccccc1 [IT374]
40 | < 50 | 50 to 500 | 50 to 500 | Cc1noc(-c2ccc(-c3ccc(Oc4c(F)cccc4C(=O)O)cc3)cc2)c1NC(=O)O[C@H](C)c1ccccc1 [IT375]
41 | < 50 | < 50 | < 50 | Cc1nnn(-c2ccc(-c3cc(F)c(Oc4ccccc4C(=O)O)c(F)c3)cc2)c1NC(=O)O[C@H](C)c1ccccc1 [IT408]
42 | < 50 | < 50 | 50 to 500 | Cc1noc(-c2ccc(-c3ccc(Oc4ccncc4C(=O)O)c(F)c3)cc2)c1NC(=O)O[C@H](C)c1ccccc1 [IT423]
43 | < 50 | < 50 | < 50 | Cc1noc(-c2ccc(-c3ccc(Oc4cccnc4C(=O)O)c(F)c3)cc2)c1NC(=O)O[C@H](C)c1ccccc1 [IT424]
44 | < 50 | < 50 | < 50 | C[C@@H](OC(=O)Nc1c(-c2ccc(-c3cc(F)c(Oc4ccccc4C(=O)O)c(F)c3)cc2)cnn1C)c1ccccc1 [IT425]
45 | < 50 | < 50 | < 50 | Cc1noc(-c2ccc(-c3cc(F)c(Oc4cccnc4C(=O)O)c(F)c3)cc2)c1NC(=O)O[C@H](C)c1ccccc1 [IT435]
46 | < 50 | < 50 | 50 to 500 | C[C@@H](OC(=O)Nc1c(-c2ccc(-c3cc(F)c(Oc4cccnc4C(=O)O)c(F)c3)cc2)cnn1C)c1ccccc1 [IT436]
47 | < 50 | 50 to 500 | 50 to 500 | C[C@@H](OC(=O)Nc1c(-c2ccc(-c3cc(F)c(Oc4ccncc4C(=O)O)c(F)c3)cc2)cnn1C)c1ccccc1 [IT438]
